Data published in patent US6902740B2, “Pyrrolidonoethyl (meth)acrylate containing pressure sensitive adhesive compositions” (3M Innovative Properties Company, priority 2001, dated 2005).

Key:
[1] = Accelerated drug solubility method (seeded crystal growth) in pressure sensitive adhesive; type: physicochemical
Experimental: The solubility of several drugs in IOA/PyEA 60/40 pressure sensitive adhesive copolymer was determined using an accelerated method which is described in detail below. Drug solubility in an IOA pressure sensitive adhesive homopolymer was used for comparison purposes.
In the accelerated drug solubility method, drug and pressure sensitive adhesive mixtures are made up over a wide range of drug concentrations and then these mixtures are seeded on their surface with pure drug crystal. If the crystals grow over time (typically one week) then the mixture is above the saturation concentration.
Separate stock solutions containing pressure sensitive adhesive in ethyl acetate and drug in a suitable solvent such as ethyl acetate or acetonitrile are prepared. The stock solutions are used to prepare 3 gram batches of drug and pressure sensitive adhesive solution. The amount of each stock solution needed is determined using the following equations, [formula] [formula] where: • C is the desired concentration of drug in pressure sensitive adhesive after solvent removal; • CDS is the concentration of drug in the drug stock solution; • CPS is the concentration of pressure sensitive adhesive in the polymer stock solution; • WDS is the weight in grams of drug stock solution; and • WPS is the weight in grams of pressure sensitive adhesive stock solution.
The calculated amounts of drug stock solution and pressure sensitive adhesive stock solution are combined in a glass vial. The vial is capped then shaken to provide a homogeneous solution.
Under a nitrogen atmosphere (e.g., in a glove box) individual drops of the drug and pressure sensitive adhesive solution are placed on a microscope slide and allowed to dry. Additional drops of solution are applied to each original spot until the spot is covered. The second application is allowed to dry. Applications are continued until a 2-3 mil (51-76 μm) layer has been built up. After the final application the slide is allowed to sit in the nitrogen atmosphere for at least 10 minutes.
The slide is removed from the nitrogen atmosphere and seeded with a very tiny amount of dry crystalline drug. A photomicrograph is taken to document the initial appearance of the crystalline “seeds”. Periodically (e.g., daily or weekly) additional photomicrographs are taken and compared with earlier photomicrographs to determine if seed crystal growth or seed crystal absorption is occurring.
The results are usually reported as a range. The low value indicates the highest concentration sample where no crystal growth is observed. The high value indicates the lowest concentration where crystal growth is observed. In some instances additional work may be performed to narrow the range to a single value.

[2] = Lerisetron solubility in PSA by absorption from receptor solution; type: physicochemical
Experimental: The solubility of the drug lerisetron in two PSAs was determined by measurement of absorption of the drug into the pressure sensitive adhesive in a heterogeneous system. Lerisetron was dissolved in a receptor solution of HBSS buffer/ethanol (85:15 w:w) to give an initial concentration of 7.94 mg/10 mL. The 100% saturation concentration of lerisetron in the receptor solution is 9.93 mg/10 mL. A defined weight of pressure sensitive adhesive was added to 10 mL of receptor solution and the receptor solution was stirred for 4 hours. After the 4 hours of stirring, the concentration of lerisetron in the receptor solution was measured using standard HPLC techniques. The difference in the initial amount of lerisetron and the final amount of lerisetron in the solution is assumed to have been absorbed by the pressure sensitive adhesive. A partition coefficient between the receptor solution and pressure sensitive adhesive can be calculated. The solubility of lerisetron in the pressure sensitive adhesive can subsequently be determined based on the partition coefficient and the previously determined solubility of lerisetron in the receptor solution.

[3] = in IOA homopolymer (comparison)

Structure (SMILES)	Drug Solubility in Pressure Sensitive Adhesive Copolymer [1, 3]	Drug Solubility in Pressure Sensitive Adhesive Copolymer ([1]; in IOA/PyEA 60/40)	Lerisetron solubility in pressure sensitive adhesive ([2]; in Isooctyl Acrylate/Pyrrolidonoethyl Acrylate/Polymethyl Methacrylate Macromonomer (59/39/2)) [%]	Lerisetron solubility in pressure sensitive adhesive ([2]; in Isooctyl Acrylate/Pyrrolidonoethyl Acrylate/Polymethyl Methacrylate Macromonomer (73/25/2)) [%]	Lerisetron solubility in pressure sensitive adhesive ([2]; in control Isooctyl Acrylate/N-vinyl pyrrolidone/Polymethyl Methacrylate Macromonomer (77/20/3))
CN1CCC(=C2c3ccccc3C=Cc3ccccc32)CC1 [Cyproheptadine]	5-6 g drug/100 g pressure sensitive adhesive copolymer	10-15 g drug/100 g pressure sensitive adhesive copolymer			
c1ccc(Cn2c(N3CCNCC3)nc3ccccc32)cc1 [Lerisetron, lerisetron]			7	3	less than 1%
C[C@]12CC[C@H]3[C@@H](CCC4=CC(=O)CC[C@@]43C)[C@@H]1CC[C@@H]2O [Testosterone]	0.5 g drug/100 g pressure sensitive adhesive copolymer	4 g drug/100 g pressure sensitive adhesive copolymer			
